Data: patent US20230270113A1, “FUNGICIDAL MIXTURES” (Adama Makhteshim Ltd., priority 2020, published 2023)
Like-named read-outs stand apart in the source and are kept apart here.

Experiments:
Botrytis cinerea = experiment: Example 11: greenhouse control of Botrytis cinerea in strawberry; type: in vivo
Venturia inaequalis [1] = experiment: Example A: greenhouse control of apple scab, phthalimides with DMI and/or fluopyram; type: in vivo; conditions: for % control observed on leaves 26 DAYS after the application / % control observed on leaves 19 DAYS after the application: captan or folpet 1200, difenoconazole 75, tebuconazole 150, fluopyram 150 gAI/ha; for Var % (19/26 DAYS): change of % control from 19 to 26 days
Alternaria solani [2] = experiment: Example 6b: greenhouse control of Alternaria solani in potato plants; type: in vivo
Zymoseptoria tritici = experiment: Example 28: in planta bioassay of penetration and translocation of QoI with folpet, wheat leaf segments; type: in vivo; conditions: example written in the present tense
[3] = tested on: Zymoseptoria tritici Tri-R6 strain; type: in vivo; conditions: for residual efficacy of the contact active ingredients after the washing step: 21 and 28 days after inoculation; for efficacy in the untreated area: contact fungicide as partner of FLUXAPYROXAD
Plasmopara viticola [4] = experiment: Example 7: greenhouse control of Plasmopara viticola in grape plants, folpet with partners; type: in vivo
Alternaria solani [5] = experiment: Example 4: greenhouse control of Alternaria solani in tomato seedlings, phthalimides with DMI and/or fluxapyroxad; type: in vivo; conditions: Table 9
Phytophthora infestans = type: in vivo; conditions: tomato
Sphaerotheca fuliginea = experiment: Example 10: greenhouse control of Sphaerotheca fuliginea on melon plants; type: in vivo
Venturia inaequalis [6] = experiment: Example 2: greenhouse control of apple scab, phthalimides with cyprodinil and/or fluxapyroxad; type: in vivo; conditions: Table 6; captan or folpet 1200, cyprodinil 300, fluxapyroxad 90 gAI/ha; one spray 1 day before inoculation
Erysiphe necator = experiment: Example 9: greenhouse control of Erysiphe necator in grape plants; type: in vivo
Description: • An experiment was conducted in controlled conditions under a greenhouse to evaluate the fungicidal activity of the mixture comprising (1) phthalimide fungicide (folpet, captan) and (2) demethylation inhibitor fungicide (difenoconazole) or a quinone outside inhibitors (azoxystrobin, pyraclostrobin), toward Erysiphe necator in grape plants, variety Barbera. In addition, the activity of phthalimide with two fungicides (A); demethylation inhibitor fungicide (difenoconazole) or a quinone outside inhibitors (azoxystrobin, pyraclostrobin and dehydrogenase inhibitor fungicide (fluxapyroxad) was also tested. • The experiment was conducted by applying compositions of fluxapyroxad, difenoconazole (Score® 10 WG), azoxystrobin (Ortiva®), pyraclostrobin (Cabrio® EC) and folpet (Folpan 80 WDG®) alone or together. The compositions were diluted with water. Water amount used was equivalent to 800 L/ha. Application was performed in an automatic spraying cabin equipped with 2 flatfan AI11003VS nozzles. • Treatments: • Folpet 1000 gr (A.I.)/ha • Fluxapyroxad 45 gr (A.I.)/ha • Difenoconazole 37.5 gr (A.I.)/ha • Difenoconazole 37.5 gr (A.I.)/ha+folpet 1000 gr (A.I.)/ha • Azoxystrobin 90 gr (A.I.)/ha • Azoxystrobin 90 gr (A.I.)/ha+folpet 1000 gr (A.I.)/ha • Pyraclostrobin 75 gr (A.I.)/ha • Pyraclostrobin 75 gr (A.I.)/ha+folpet 1000 gr (A.I.)/ha • Fluxapyroxad 45 gr (A.I.)/ha+Difenoconazole 37.5 gr (A.I.)/ha • Fluxapyroxad 45 gr (A.I.)/ha+Difenoconazole 37.5 gr (A.I.)/ha+folpet 1000 gr (A.I.)/ha • Azoxystrobin 90 gr (A.I.)/ha+Fluxapyroxad 45 gr (A.I.)/ha • Azoxystrobin 90 gr (A.I.)/ha+Fluxapyroxad 45 gr (A.I.)/ha+folpet 1000 gr (A.I.)/ha • Azoxystrobin 90 gr (A.I.)/ha+Difenoconazole 37.5 gr (A.I.)/ha • Azoxystrobin 90 gr (A.I.)/ha+Difenoconazole 37.5 gr (A.I.)/ha+folpet 1000 gr (A.I.)/ha • Pyraclostrobin 75 gr (A.I.)/ha+Fluxapyroxad 45 gr (A.I.)/ha • Pyraclostrobin 75 gr (A.I.)/ha+Fluxapyroxad 45 gr (A.I.)/ha+folpet 1000 gr (A.I.)/ha • Pyraclostrobin 75 gr (A.I.)/ha+Difenoconazole 37.5 gr (A.I.)/ha • Pyraclostrobin 75 gr (A.I.)/ha+Difenoconazole 37.5 gr (A.I.)/ha+folpet 1000 gr (A.I.)/ha • To test for fungicidal control of Erysiphe necator, the grape plants were sprayed with each of the above treatments. Each of the above treatments was applied from 4 to 10 times according to the disease development, applications occurring 7-14 days after the previous treatment. The treatments were composed of 4 replicates. • Evaluations were performed for the whole duration of the experiment. At each time the incidence and the severity of Erysiphe necator on plants parts was determined.

Venturia inaequalis [7] = experiment: Example 1b: greenhouse control of apple scab, reduced rates of phthalimides and difenoconazole; type: in vivo; conditions: for % control observed on leaves 26 DAYS after the application / % control observed on leaves 19 DAYS after the application: captan or folpet 900, difenoconazole 35, tebuconazole 150, fluopyram 150 gAI/ha
Plasmopara viticola [8] = experiment: Example 8: greenhouse control of Plasmopara viticola in young grape plants, folpet with potassium phosphonate
Alternaria solani [9] = experiment: Example 5: greenhouse control of Alternaria solani in tomato, phthalimides with azoxystrobin and/or fluxapyroxad; type: in vivo
Plasmopara viticola [10] = experiment: Example 22: greenhouse control of Plasmopara viticola in grape, fluxapyroxad and folpet; type: in vivo; conditions: variety Barbera
Venturia inaequalis [11] = experiment: Example 13: greenhouse control of apple scab, fluxapyroxad and captan; type: in vivo
[12] = Table 2, one spray 1 day before inoculation, severity based
[13] = captan or folpet 1200, difenoconazole 75, tebuconazole 150, fluxapyroxad 75 gAI/ha, one spray 1 day before inoculation
[14] = Table 4, one spray 1 day before inoculation
[15] = Table 10, captan or folpet 900 gAI/ha
[16] = Table 10, captan or folpet 1200, azoxystrobin 120, fluxapyroxad 75 gAI/ha, one spray 1 day before inoculation
[17] = 28 days, comparison with FLUXAPYROXAD alone

Compound	% control observed on leaves 26 DAYS after the application (Venturia inaequalis [1]; [12])	% control observed on leaves 19 DAYS after the application (Venturia inaequalis [1]; Table 3)	% control observed on leaves 26 DAYS after the application (Venturia inaequalis [1]; Table 3)	Var % (19/26 DAYS) (Venturia inaequalis [1]; Table 3)	% control observed on leaves 21 DAYS after the application (Alternaria solani [2]; rate 900 gr (A.I.)/ha)	% control observed on leaves 21 DAYS after the application (Alternaria solani [2]; rate 1200 gr (A.I.)/ha)	difference from the untreated control after the washing step, treated and untreated areas (Zymoseptoria tritici)	residual efficacy of the contact active ingredients after the washing step [3]	% control observed on leaves 20 DAYS after the application (Alternaria solani [5]; captan or folpet 900 gAI/ha)	% control observed on leaves 20 DAYS after the application (Alternaria solani [5]; [13])	% control observed on leaves 14 DAYS after the application (Phytophthora infestans; rate 900 gr (A.I.)/ha)	% control observed on leaves 14 DAYS after the application (Phytophthora infestans; rate 1200 gr (A.I.)/ha)	% control observed on leaves 26 DAYS after the application (Venturia inaequalis [6])	% control observed on leaves 26 DAYS after the application (Venturia inaequalis [7]; [14])	% control observed on leaves 19 DAYS after the application (Venturia inaequalis [7]; Table 5)	% control observed on leaves 26 DAYS after the application (Venturia inaequalis [7]; Table 5)	% control observed on leaves 20 DAYS after the application (Alternaria solani [9]; [15])	% control observed on leaves 20 DAYS after the application (Alternaria solani [9]; [16])	% control observed on leaves 14 DAYS after the application (Alternaria solani [9]; rate 900 gAI/ha, tomato)	% control observed on leaves 20 DAYS after the application (Alternaria solani [9]; rate 900 gAI/ha, tomato)	other results
O=C1c2ccccc2C(=O)N1SC(Cl)(Cl)Cl [FOLPET, folpet]	72.3%	80.6%	72.3%	−10.3%	53.2%	63.6%	no significant difference from the untreated control	very low	50.5%	63.4%	58.3%	70.3%	64.9%	73.4%	82.1%	73.4%	56.7%	65.3%	67.8%	56.7%	% control observed on leaves 21 DAYS after the application (Botrytis cinerea; rate 900 gr (A.I.)/ha): 33.3%; % control observed on leaves 21 DAYS after the application (Botrytis cinerea; rate 1200 gr (A.I.)/ha): 40.8%; % control observed on leaves 21 DAYS after the application (Plasmopara viticola [4]; rate 1000 gr (A.I.)/ha): 60.3%; % control observed on leaves 21 DAYS after the application (Sphaerotheca fuliginea; rate 900 gr (A.I.)/ha): 45.3%; % control observed on leaves 21 DAYS after the application (Sphaerotheca fuliginea; rate 1200 gr (A.I.)/ha): 54.0%; % control observed on leaves 21 DAYS after the application (Erysiphe necator; rate 1000 gr (A.I.)/ha): 35.2%; % control observed on leaves 28 DAYS after the application (Plasmopara viticola [8]; rate 1050 gAI/ha): 87.7%; % control observed on leaves 28 DAYS after the application (Plasmopara viticola [8]; rate 1200 gAI/ha): 96.9%; Var % (14/20 DAYS) (Alternaria solani [9]; rate 900 gAI/ha, tomato): −16.4%; % control observed on leaves 14 DAYS after the application (Alternaria solani [9]; rate 1200 gAI/ha, tomato): 79.7%; % control observed on leaves 20 DAYS after the application (Alternaria solani [9]; rate 1200 gAI/ha, tomato): 65.3%; Var % (14/20 DAYS) (Alternaria solani [9]; rate 1200 gAI/ha, tomato): 18.1%
S1SSSSSSS1 [SULPHUR]							no significant difference from the untreated control	very low													efficacy in the untreated area [3, 17]: significantly less than when FLUXAPYROXAD is used alone or with FOLPET
N#Cc1c(Cl)c(Cl)c(Cl)c(C#N)c1Cl [CHLOROTHALONIL, chlorothalonil]							no significant difference from the untreated control	very low													efficacy in the untreated area [3, 17]: significantly less than when FLUXAPYROXAD is used alone or with FOLPET
potassium phosphonate																					% control observed on leaves 28 DAYS after the application (Plasmopara viticola [8]; rate 1575 gAI/ha): 31.7%; % control observed on leaves 28 DAYS after the application (Plasmopara viticola [8]; rate 1800 gAI/ha): 40.9%
Cn1cc(C(=O)Nc2ccccc2-c2cc(F)c(F)c(F)c2)c(C(F)F)n1 [FLUXAPIROXAD, fluxapyroxad]										60.4%			75%					66.6%			efficacy in the treated area [3, 17]: better protection than when used with SULPHUR or CHLOROTHALONIL; effect against Plasmopara viticola (Plasmopara viticola [10]): limited effect; % control observed on leaves 21 DAYS after the application (Plasmopara viticola [4]; rate 45 gr (A.I.)/ha): 35.1%; % control observed on leaves 26 DAYS after the application (Venturia inaequalis [11]; rate 45 gAI/ha): 38.6%; % control observed on leaves 26 DAYS after the application (Venturia inaequalis [11]; rate 55 gAI/ha): 61.7%; % control observed on leaves 26 DAYS after the application (Venturia inaequalis [11]; rate 75 gAI/ha): 78.4%; % control observed on leaves 26 DAYS after the application (Venturia inaequalis [11]; rate 90 gAI/ha): 86.6%; % control observed on leaves 21 DAYS after the application (Sphaerotheca fuliginea; rate 75 gr (A.I.)/ha): 72.5%; % control observed on leaves 21 DAYS after the application (Erysiphe necator; rate 45 gr (A.I.)/ha): 68.7%; % control observed on leaves 14 DAYS after the application (Alternaria solani [9]; rate 75 gAI/ha, tomato): 75.3%; % control observed on leaves 20 DAYS after the application (Alternaria solani [9]; rate 75 gAI/ha, tomato): 66.6%; Var % (14/20 DAYS) (Alternaria solani [9]; rate 75 gAI/ha, tomato): −11.6%
O=C1C2CC=CCC2C(=O)N1SC(Cl)(Cl)Cl (stereo not shown) [CAPTAN, captan]	75.9%	82.6%	75.9%	−8.1%	54.1%	64.8%			51.3%	64.3%	57.0%	72.4%	68.3%	77%	83.9%	77%	54.5%	65.9%	64.9%	54.5%	% control observed on leaves 26 DAYS after the application (Venturia inaequalis [11]; rate 600 gAI/ha): 50.4%; % control observed on leaves 26 DAYS after the application (Venturia inaequalis [11]; rate 900 gAI/ha): 68.1%; % control observed on leaves 26 DAYS after the application (Venturia inaequalis [11]; rate 1200 gAI/ha): 78.5%; % control observed on leaves 26 DAYS after the application (Venturia inaequalis [11]; rate 1500 gAI/ha): 89.1%; Var % (19/26 DAYS) (Venturia inaequalis [7]; Table 5, change of % control from 19 to 26 days): −8.2%; Var % (14/20 DAYS) (Alternaria solani [9]; rate 900 gAI/ha, tomato): −16.0%; % control observed on leaves 14 DAYS after the application (Alternaria solani [9]; rate 1200 gAI/ha, tomato): 76%; % control observed on leaves 20 DAYS after the application (Alternaria solani [9]; rate 1200 gAI/ha, tomato): 65.9%; Var % (14/20 DAYS) (Alternaria solani [9]; rate 1200 gAI/ha, tomato): −13.3%
